Results published in patent US8846066B2, “Methods and related compositions for reduction of fat and skin tightening” (The Regents of the University of California, priority 2004, dated 2014).
“And” between values parts separate entries of the source, which are not always exact repeats. Identical values can stand only once.

Columns and labels:
[1] = test system: HaCaT cells; experiment: Lactate dehydrogenase (LDH) release assay, cell lysis; type: cell-based, human; settings: for LDH release (OD 490): 30 min at 37° C.
Procedure: Cell lysis in response to detergent treatment was determined in HaCaT cells incubated with the reagents at the indicated cell dilutions for 30 min at 37° C. Lysis in cultured cells was measured using a lactate dehydrogenase (LDH) assay and within tissue using calcein, a fluorescent marker retained in cells with intact cell membranes. The LDH assay measures the activity of LDH, which is a cytosolic enzyme released when cells are lysed. Lactate dehydrogenase release was measured by absorbance (at 490 nm) after a 1 hour incubation with the LDH assay as recommended by the manufacturer (CytoTox 96 Non-Radioactive Cytotoxicity Assay, Promega). All studies were performed in triplicate. LDH release is directly proportional to absorbance at 490 nm (OD 490).

[2] = test system: immortalized melanocyte cell lines; experiment: Killing by DC after pre-incubation with human lipoma fat, series of cell lines; type: cell-based; settings: 0.1% DC pre-incubated with human lipoma fat
Procedure: The experiment was performed on a series of immortalized melanocyte cell lines. Resected human lipomas were ground up, and DC-containing media was mixed with the human fat and agitated for 24 hours. The material was centrifuged to pellet insoluble contents. The supernatants were then added on top of cultured melanocytes. Control was the identical DC-containing media not exposed to the fat chunks. Also, fat alone (no media) was added as a control.
But it is evident in this experiment that the presence of the fat limits the killing properties of DC, may be by direct inhibition (like PC) or by sequestration (i.e., into the fat pellet). This can further explain the observation that injection of DC into fat spares the surrounding tissues.

[3] = test system: Melanocytes (A375P melanoma cell line); experiment: MTS survival of melanocytes after DC with or without 1% PC; type: cell-based; settings: 30 min; for Melanocytes surviving in DC only: MTS OD 490 nm, single wells; for Average (DC only): mean MTS OD 490 nm
Procedure: Melanocytes in melanocyte media on a 96-well dish were differentiated at 37° C. in a humidified, 5% CO2 incubator for a week. Media was aspirated and washed with 1×PBS once. Cells were treated with different concentrations of DC (from 0 to 0.5%) with or without 1% PC in 1×PBS. Each treatment was done in triplicates (Table 4). The plates were incubated at 37° C. in a humidified, 5% CO2 incubator for 30 min. The incubated plates were aspirated and washed with 1×PBS.
10 mL of MTS (3-(4,5-dimethyl-2-yl)-5-(3-carboxymethoxyphenyl)-2-(4-sulfophenyl)-2H-tetrazolium, inner salt) assay solution was prepared (mixed 40 uL MTS (Promega, Madison Wis.) […]). 100 ul of MTS solution was added to each well of the plates. The plates were incubated at 37° C. incubator (non-hunified) for 120 min. OD was taken with spectrophotometer at 490 nm.
FIG. 7 illustrates the survival of melanocytes in sodium deoxycholate solution and sodium deoxycholate with 1% phosphatidylcholine solution. A375P is a melanoma cell line (P represents poorly metastatic). On y-axis, 1 represents 100% survival when no DC is added. All % concentrations are w/v %. […] The addition of sodium deoxycholate with 1% phosphatidylcholine solution increases the LD50 by ˜5-6 fold.

[4] = test system: porcine fat tissue; experiment: MTS assay in fresh porcine fat specimens; type: cell-based; settings: PBF or 5% solutions, 4 hours
Procedure: To measure cell viability after detergent treatment, HaCaT human keratinocyte cells were cultured in DMEM (Dulbecco's modified Eagle's medium) supplemented with 10% fetal calf serum, penicillin, and streptomycin. […] Cell viability was determined by an absorbance spectrophotometer (at 490 nm) after 4 hour incubation with the assay at 37° C. To determine cell viability in fresh tissue, fat specimens were incubated for 4 hours in 24 well plates with stock reagents and the MTS assay. Tissue specimens were then visualized for color change and the amount of MTS in their supernatants was measured by absorbance (at 490 nm). All studies were performed in triplicate. Absorbance at 490 nm (OD 490) is proportional to the number of living cells in the culture.
Porcine tissue was obtained immediately after sacrifice, shaved, and placed on ice for a maximum of four hours before use. […] Calcein retention was determined by tissue fluorescence using purple (411 nm) light and visually observing the emitted green (500 nm) light using an emission filters.
Fresh porcine skin was used to determine if the effects of these detergent substances on cultured cells were similar in tissue. […] The difference in fat cell viability between the solutions was quantified by measuring the absorbance (at 490) of the supernatants collected from the treated fat specimens (FIG. 3b). […]

[5] = test system: lipomas; experiment: Injection of DC solutions into lipomas of patients (Example 4); type: in vivo, human
Procedure: Patients having lipomas, benign, isolated collections of adipose tissue, were injected with sodium deoxycholate (DC) solutions without phosphatidylcholine directly into the lipoma. […] A lipoma from one patient, injected with 1% DC, was excised after treatment and pathological and histological analysis performed. Within the excised lipoma, necrosis is visible grossly (FIG. 6a) with a well demarcated area of hemorrhage and necrosis on the lateral edge extending into the middle of the lipoma fat which contrasts with the normal lipoma fat which is lighter in color.

[6] = test system: adipocytes; experiment: Adipocyte survival on addition of PC to 4.75% DC; type: cell-based; settings: for Average / Adipocytes surviving by adding PC to 4.75% DC: 4.75% DC; for Adipocytes surviving by adding PC to 4.75% DC: single wells
Procedure: FIG. 9 illustrates survival of adipocytes when phosphatidylcholine is added to 4.75% sodium deoxycholate solution. On y-axis, 1 represents 100% survival. All % concentrations are w/v %. Survival of the cells in the absence of DC and PC is on an average 0.113.

## C[C@H](CCC(=O)[O-])[C@H]1CC[C@H]2[C@@H]3CC[C@@H]4C[C@H](O)CC[C@]4(C)[C@H]3C[C@H](O)[C@]12C.[Na+] [DC, sodium deoxycholate]
[1]; 0.005% dilution
  LDH release (OD 490): minimal LDH release
[1]; 0.05% and 0.5%
  LDH release (OD 490): progressively more LDH released
[1]; cell culture
  cell lysis compared with PBF: less cell lysis
[1]; over the tested dilutions
  cell lysis (LDH release, FIG. 2b): concentration dependent increase in cell lysis
[2]
  effect of pre-incubation with fat on killing: appears to reduce killing
[3]; DC 0.001 (w/v %)
  Melanocytes surviving in DC only: 0.158 and 0.148 and 0.16
  Average (DC only): 0.1553
[3]; DC 0.005 (w/v %)
  Melanocytes surviving in DC only: 0.128 and 0.109 and 0.103
  Average (DC only): 0.1133
[3]; DC 0.01 (w/v %)
  Melanocytes surviving in DC only: 0.124 and 0.107 and 0.106
  Average (DC only): 0.1123
[3]; DC 0.05 (w/v %)
  Melanocytes surviving in DC only: 0.056 and 0.038 and 0.048
  Average (DC only): 0.04733
[3]; DC 0.1 (w/v %)
  Melanocytes surviving in DC only: 0.009 and 0.014 and 0.016
  Average (DC only): 0.013
[3]; DC 0.5 (w/v %)
  Average (DC only): 0.004
[3]; melanocyte cell line, w/v %
  LD50 (concentration at which 50% of the cells are dead): around 0.04%
[4]
  fat cell viability (MTS purple dye, absorbance at 490): comparable loss of purple dye
[5]; Lipoma 5, pre-treatment 2.00 × 1.75, 2 treatments (1% DC)
  Size(cm) Post-treatment: 1.25 cm
[5]; Lipoma 6, pre-treatment 2.80, 1 treatment (5% DC)
  Size(cm) Post-treatment: 0.50 cm
[5]; Lipoma 7, pre-treatment 1.00, 1 treatment (1% DC)
  Size(cm) Post-treatment: Imperceptible
[5]; after at least one treatment, varied concentrations of deoxycholate
  size of injected lipomas: reduced in size
[5]; one patient, 1% DC, removed two days after injection
  pathology and histology of excised lipoma: well defined area of hemorrhage and necrotic fat
[6]; PC 0 (w/v %)
  Average: 0
  Adipocytes surviving by adding PC to 4.75% DC: 0
[6]; PC 0.01 (w/v %)
  Average: 0
  Adipocytes surviving by adding PC to 4.75% DC: 0
[6]; PC 0.1 (w/v %)
  Average: 0
  Adipocytes surviving by adding PC to 4.75% DC: 0
[6]; PC 1 (w/v %)
  Average: 0
  Adipocytes surviving by adding PC to 4.75% DC: 0
[6]; PC 5 (w/v %)
  Average: 0.009
[6]; 4.75% sodium deoxycholate, in vitro
  adipolysis of cultured adipocytes: 100%
